These results are taken from BindingDB's records for doi:10.1016/j.bmcl.2003.11.032 (Abbott Laboratories, 2004).

pKi: −log10 of the molar value.

As usually defined, the pKi is the Ki on a negative log10 scale, so that one unit is a factor of ten. A higher pKi goes with a small Ki.

Test [1] has as its target Histamine H3 receptor (Rattus norvegicus, UniProt Q9QYN8). The test is described as follows: Binding potency was determined by displacement of [3H]N-alpha-methyl histamine from histamine H3 receptor of rat cortical membranes.
For test [2], the target named is Histamine H3 receptor (Homo sapiens, UniProt Q9Y5N1). The test is described as follows: Binding potency was determined by displacement of [3H]N-alpha-methyl histamine from cloned human histamine H3 receptor expressed in C6 cells.
Histamine H3 receptor (Homo sapiens, UniProt Q9Y5N1), sequence (Q9Y5N1 whole entry): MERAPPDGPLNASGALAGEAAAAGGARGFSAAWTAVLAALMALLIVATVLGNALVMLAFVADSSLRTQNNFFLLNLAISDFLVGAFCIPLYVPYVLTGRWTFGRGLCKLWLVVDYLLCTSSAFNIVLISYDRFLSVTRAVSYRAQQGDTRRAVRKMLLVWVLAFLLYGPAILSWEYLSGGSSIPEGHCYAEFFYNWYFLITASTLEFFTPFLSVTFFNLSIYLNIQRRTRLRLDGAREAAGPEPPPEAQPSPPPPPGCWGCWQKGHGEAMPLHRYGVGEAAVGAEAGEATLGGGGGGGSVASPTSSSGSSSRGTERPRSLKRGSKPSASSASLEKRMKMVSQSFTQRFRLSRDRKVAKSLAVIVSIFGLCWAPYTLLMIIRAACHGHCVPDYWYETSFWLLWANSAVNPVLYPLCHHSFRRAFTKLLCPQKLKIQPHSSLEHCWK

Histamine H3 receptor (Rattus norvegicus, UniProt Q9QYN8), sequence (Q9QYN8 whole entry): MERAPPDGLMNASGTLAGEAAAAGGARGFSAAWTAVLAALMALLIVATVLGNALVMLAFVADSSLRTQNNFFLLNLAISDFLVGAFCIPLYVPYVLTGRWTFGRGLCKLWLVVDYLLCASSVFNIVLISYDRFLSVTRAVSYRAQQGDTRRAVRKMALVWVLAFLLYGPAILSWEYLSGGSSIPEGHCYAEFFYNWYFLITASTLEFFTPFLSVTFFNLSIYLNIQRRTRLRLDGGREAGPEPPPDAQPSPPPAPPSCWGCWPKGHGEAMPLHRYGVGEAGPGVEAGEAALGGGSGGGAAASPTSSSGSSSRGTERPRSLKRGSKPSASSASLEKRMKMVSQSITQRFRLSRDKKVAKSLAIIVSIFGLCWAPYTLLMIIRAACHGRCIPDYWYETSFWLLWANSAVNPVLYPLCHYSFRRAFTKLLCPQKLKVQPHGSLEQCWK

Consider `CC1CCCCN1CCc1cc2cc(-c3ccc(C(=O)N4CCOCC4)cc3)ccc2o1` (configuration not stated) [(4-{2-[2-(2-Methyl-piperidin-1-yl)-ethyl]-benzofuran-5-yl}-phenyl)-morpholin-4-yl-methanone], for which, in test [1], the pKi is 7.89.

In test [2], `O=C(c1ccc(-c2ccc3oc(CCN4CCCCC4)cc3c2)nc1)N1CCOCC1` [Morpholin-4-yl-{6-[2-(2-piperidin-1-yl-ethyl)-benzofuran-5-yl]-pyridin-3-yl}-methanone] gave a pKi of 7.89.
